We go through three compounds from paper doi:10.1101/2024.08.19.608619, “Discovery of potent SARS-CoV-2 nsp3 macrodomain inhibitors uncovers lack of translation to cellular antiviral response” (bioRxiv, 2024).

The structures appear in SMILES notation. Read-outs that look alike come from different tables or passages of the source.

In one data set the target is NaV1.5 (Homo sapiens, UniProt Q14524). The data set is described as follows: In vitro NaV1.5 cardiotoxicity. To be noted: top test concentration 30 uM. The source says:
Supplement media-1.zip/Cardiotoxicity.csv, table | column: ic50_rest_state; ic50_use_dep_block; perc_inhibition_rest_state; perc_inhibition_use_dep_block

Another data set deals with T1, H2 (h) (Homo sapiens, UniProt P25021).
T1 construct: purchased Eurofins Cerep (SafetyScreen44), recognised from the panel format
The data set is described as follows: In vitro CEREP profiling, H2 (h) (antagonist radioligand). To be noted: test compound concentration 10 uM. It is filed as binding. The source says: (§1) Supplement media-1.zip/Safety_Panel_Profile.csv, table | column: perc_inhibition

For another data set, the target named is T2, beta2 (h) (Homo sapiens, UniProt P07550).
T2 construct: purchased Eurofins Cerep (SafetyScreen44), recognised from the panel format
Nature of the data set: In vitro CEREP profiling, beta2 (h) (antagonist radioligand). It is filed as binding. To be noted: test compound 10 uM.
Excerpt: as §1

For the next data set, the target named is T3, PDE3A (h) (Homo sapiens, UniProt Q14432).
T3 construct: purchased Eurofins Cerep (SafetyScreen44), recognised from the panel format
Nature of the data set: In vitro CEREP profiling, PDE3A (h). Format: biochemical. To be noted: test compound concentration 10 uM; Enzyme and Cell-based assays.
Excerpt: as §1

The next data set has as its system AR(h). The data set is described as follows: In vitro CEREP profiling, AR(h) (agonist radioligand). It is filed as binding, human. To be noted: test compound concentration 10 uM.
Excerpt: as §1

The target of another data set is T4, mu (MOP) (h) (Homo sapiens, UniProt P35372).
T4 construct: purchased Eurofins Cerep (SafetyScreen44), recognised from the panel format
Nature of the data set: In vitro CEREP profiling, mu (MOP) (h) (agonist radioligand). It is filed as binding. To be noted: test compound concentration 10 uM.
Excerpt: as §1

A further data set deals with T5, alpha2A (h) (Homo sapiens, UniProt P08913).
T5 construct: purchased Eurofins Cerep (SafetyScreen44), recognised from the panel format
T5 sequence (P08913 1-465): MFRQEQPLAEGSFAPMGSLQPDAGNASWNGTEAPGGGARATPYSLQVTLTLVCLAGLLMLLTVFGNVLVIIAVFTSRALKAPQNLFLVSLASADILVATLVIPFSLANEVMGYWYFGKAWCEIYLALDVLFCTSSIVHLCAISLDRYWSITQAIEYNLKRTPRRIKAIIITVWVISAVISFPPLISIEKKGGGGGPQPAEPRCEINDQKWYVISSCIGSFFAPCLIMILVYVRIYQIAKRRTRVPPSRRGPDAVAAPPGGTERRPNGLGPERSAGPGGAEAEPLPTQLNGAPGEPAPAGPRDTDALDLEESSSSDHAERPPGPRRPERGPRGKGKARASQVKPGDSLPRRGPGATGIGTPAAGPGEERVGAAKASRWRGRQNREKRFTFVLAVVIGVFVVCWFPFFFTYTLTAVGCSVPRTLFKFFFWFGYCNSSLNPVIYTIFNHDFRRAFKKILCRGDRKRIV
Nature of the data set: In vitro CEREP profiling, alpha2A (h) (antagonist radioligand). To be noted: test compound 10 uM. It is filed as binding.
Excerpt: as §1

A further data set has as its target T6, COX1(h) (Homo sapiens, UniProt P23219).
T6 construct: purchased Eurofins Cerep (SafetyScreen44), recognised from the panel format
The data set is described as follows: In vitro CEREP profiling, COX1(h). It is filed as biochemical. To be noted: test compound concentration 10 uM; Enzyme and Cell-based assays.
Excerpt: as §1

A further data set concerns the target T7, acetylcholinesterase (h) (Homo sapiens, UniProt P22303).
T7 construct: purchased Eurofins Cerep (SafetyScreen44), recognised from the panel format
The data set is described as follows: In vitro CEREP profiling, acetylcholinesterase (h). Format: biochemical. To be noted: test compound concentration 10 uM; Enzyme and Cell-based assays.
Excerpt: as §1

Another data set has as its target T8, M1 (h) (Homo sapiens, UniProt P11229).
T8 construct: purchased Eurofins Cerep (SafetyScreen44), recognised from the panel format
T8 sequence (P11229 1-460): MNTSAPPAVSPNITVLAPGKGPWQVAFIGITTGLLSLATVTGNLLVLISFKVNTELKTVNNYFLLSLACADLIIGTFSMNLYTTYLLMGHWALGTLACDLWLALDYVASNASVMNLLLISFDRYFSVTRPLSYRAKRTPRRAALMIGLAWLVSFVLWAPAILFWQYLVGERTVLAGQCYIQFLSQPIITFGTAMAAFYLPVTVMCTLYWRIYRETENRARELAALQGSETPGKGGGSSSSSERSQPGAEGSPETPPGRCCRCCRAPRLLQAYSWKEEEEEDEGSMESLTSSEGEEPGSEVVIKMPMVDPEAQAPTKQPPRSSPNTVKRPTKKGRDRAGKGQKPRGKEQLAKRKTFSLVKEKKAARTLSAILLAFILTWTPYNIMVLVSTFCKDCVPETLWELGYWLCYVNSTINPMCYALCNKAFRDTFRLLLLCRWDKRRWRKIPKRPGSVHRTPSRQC
The data set is described as follows: In vitro CEREP profiling, M1 (h) (antagonist radioligand). Format: binding. To be noted: test compound concentration 10 uM.
Excerpt: as §1

In a further data set the target is T9, M3 (h) (Homo sapiens, UniProt P20309).
T9 construct: purchased Eurofins Cerep (SafetyScreen44), recognised from the panel format
Nature of the data set: In vitro CEREP profiling, M3 (h) (antagonist radioligand). It is filed as binding. To be noted: test compound concentration 10 uM.
Excerpt: as §1

The target of data set [1] is T10, N neuronal alpha4beta2 (h) (Homo sapiens, UniProt P17787+P43681).
T10 construct: purchased Eurofins Cerep (SafetyScreen44), recognised from the panel format
The data set is described as follows: In vitro CEREP profiling, N neuronal alpha4beta2 (h) (agonist radioligand). It is filed as binding. To be noted: test compound concentration 10 uM.
Excerpt: as §1

The target in a further data set is T11, ETA (h) (Homo sapiens, UniProt P25101).
T11 construct: purchased Eurofins Cerep (SafetyScreen44), recognised from the panel format
T11 sequence (P25101 21-427): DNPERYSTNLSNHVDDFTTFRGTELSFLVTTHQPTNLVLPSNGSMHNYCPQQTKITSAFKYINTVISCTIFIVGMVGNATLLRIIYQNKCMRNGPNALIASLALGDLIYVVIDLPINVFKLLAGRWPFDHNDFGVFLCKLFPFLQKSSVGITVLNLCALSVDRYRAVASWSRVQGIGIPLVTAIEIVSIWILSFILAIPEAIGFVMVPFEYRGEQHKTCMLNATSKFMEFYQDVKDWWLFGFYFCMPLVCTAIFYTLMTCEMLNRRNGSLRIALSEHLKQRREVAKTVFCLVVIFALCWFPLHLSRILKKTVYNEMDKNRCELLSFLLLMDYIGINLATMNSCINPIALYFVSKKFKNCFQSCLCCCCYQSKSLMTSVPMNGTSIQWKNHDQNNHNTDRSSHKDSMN
Nature of the data set: In vitro CEREP profiling, ETA (h) (agonist radioligand). Format: binding. To be noted: test compound 10 uM.
Excerpt: as §1

Where [2] appears, read: NaV1.5, rest state, read-out: ic50_rest_state.
Setting [3] is: NaV1.5, use dependent block, read-out: ic50_use_dep_block.

NaV1.5, sequence (Q14524 whole entry): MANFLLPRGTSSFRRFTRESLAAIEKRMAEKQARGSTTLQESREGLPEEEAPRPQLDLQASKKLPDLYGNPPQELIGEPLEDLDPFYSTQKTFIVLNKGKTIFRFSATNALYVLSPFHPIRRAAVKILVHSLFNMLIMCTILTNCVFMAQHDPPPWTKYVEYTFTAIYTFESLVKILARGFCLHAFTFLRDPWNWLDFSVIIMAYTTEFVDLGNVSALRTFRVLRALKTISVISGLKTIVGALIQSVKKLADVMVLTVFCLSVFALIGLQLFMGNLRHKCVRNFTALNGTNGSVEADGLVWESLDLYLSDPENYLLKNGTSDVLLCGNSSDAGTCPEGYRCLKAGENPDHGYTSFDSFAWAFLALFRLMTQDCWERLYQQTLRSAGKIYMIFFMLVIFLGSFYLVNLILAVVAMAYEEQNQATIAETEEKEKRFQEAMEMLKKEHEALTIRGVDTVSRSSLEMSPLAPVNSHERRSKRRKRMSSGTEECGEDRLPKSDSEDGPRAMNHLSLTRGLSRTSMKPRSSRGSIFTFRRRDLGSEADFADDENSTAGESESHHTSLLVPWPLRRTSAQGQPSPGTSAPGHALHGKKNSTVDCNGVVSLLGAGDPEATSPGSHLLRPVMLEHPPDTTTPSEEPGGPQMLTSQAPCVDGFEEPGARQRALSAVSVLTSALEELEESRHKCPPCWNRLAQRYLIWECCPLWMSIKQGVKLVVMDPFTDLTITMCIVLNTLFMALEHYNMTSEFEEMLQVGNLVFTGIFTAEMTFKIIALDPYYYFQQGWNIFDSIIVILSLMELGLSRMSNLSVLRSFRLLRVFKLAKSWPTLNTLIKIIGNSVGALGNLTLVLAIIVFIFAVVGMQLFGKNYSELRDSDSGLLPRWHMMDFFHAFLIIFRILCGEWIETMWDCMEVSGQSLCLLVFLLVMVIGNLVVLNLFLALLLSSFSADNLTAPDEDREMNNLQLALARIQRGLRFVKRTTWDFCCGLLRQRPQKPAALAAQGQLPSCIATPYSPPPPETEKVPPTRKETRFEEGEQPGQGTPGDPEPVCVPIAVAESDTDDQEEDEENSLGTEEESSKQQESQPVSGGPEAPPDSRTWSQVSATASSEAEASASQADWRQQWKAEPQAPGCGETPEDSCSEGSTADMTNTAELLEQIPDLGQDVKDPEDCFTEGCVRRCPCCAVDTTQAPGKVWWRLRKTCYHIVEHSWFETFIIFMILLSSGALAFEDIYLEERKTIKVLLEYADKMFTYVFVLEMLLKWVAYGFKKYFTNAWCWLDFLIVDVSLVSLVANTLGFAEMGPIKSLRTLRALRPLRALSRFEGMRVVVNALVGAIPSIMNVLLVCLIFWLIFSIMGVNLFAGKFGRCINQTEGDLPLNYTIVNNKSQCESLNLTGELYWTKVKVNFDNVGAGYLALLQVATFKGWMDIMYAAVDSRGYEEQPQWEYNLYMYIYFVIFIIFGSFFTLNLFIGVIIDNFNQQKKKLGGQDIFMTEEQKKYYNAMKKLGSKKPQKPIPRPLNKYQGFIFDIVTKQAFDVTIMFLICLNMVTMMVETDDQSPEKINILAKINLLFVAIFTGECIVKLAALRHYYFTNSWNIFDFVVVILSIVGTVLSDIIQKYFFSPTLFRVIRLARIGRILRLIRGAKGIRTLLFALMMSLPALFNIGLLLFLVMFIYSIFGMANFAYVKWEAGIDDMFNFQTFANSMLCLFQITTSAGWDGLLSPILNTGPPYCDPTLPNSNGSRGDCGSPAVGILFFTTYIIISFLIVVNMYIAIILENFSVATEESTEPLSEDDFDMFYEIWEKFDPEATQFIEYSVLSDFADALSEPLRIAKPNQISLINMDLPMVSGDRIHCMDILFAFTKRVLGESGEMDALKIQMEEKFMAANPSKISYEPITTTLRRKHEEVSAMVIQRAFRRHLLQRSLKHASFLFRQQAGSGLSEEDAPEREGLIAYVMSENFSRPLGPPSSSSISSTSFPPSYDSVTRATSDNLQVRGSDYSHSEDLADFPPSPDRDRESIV
T1 sequence (P25021 whole entry): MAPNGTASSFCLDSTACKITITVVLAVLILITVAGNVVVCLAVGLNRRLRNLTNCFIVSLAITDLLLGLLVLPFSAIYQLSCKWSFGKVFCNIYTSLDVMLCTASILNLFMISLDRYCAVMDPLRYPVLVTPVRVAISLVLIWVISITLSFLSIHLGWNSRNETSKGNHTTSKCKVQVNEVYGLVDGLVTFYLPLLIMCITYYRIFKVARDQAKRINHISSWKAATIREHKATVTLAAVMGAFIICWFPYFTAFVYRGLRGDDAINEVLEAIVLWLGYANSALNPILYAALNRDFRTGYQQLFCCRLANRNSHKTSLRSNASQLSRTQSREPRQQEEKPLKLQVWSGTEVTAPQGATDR
T4 sequence (P35372 whole entry): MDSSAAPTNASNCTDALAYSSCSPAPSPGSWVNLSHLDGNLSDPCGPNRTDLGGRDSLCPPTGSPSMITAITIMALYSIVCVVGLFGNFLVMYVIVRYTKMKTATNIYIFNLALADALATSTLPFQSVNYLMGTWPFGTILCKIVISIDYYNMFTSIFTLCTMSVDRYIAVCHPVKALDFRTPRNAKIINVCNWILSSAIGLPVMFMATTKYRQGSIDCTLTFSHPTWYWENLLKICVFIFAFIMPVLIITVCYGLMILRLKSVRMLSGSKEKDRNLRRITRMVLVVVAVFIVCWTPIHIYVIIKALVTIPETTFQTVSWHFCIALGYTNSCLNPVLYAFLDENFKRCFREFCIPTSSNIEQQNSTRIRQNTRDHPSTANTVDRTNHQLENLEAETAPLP
T7 sequence (P22303 32-614): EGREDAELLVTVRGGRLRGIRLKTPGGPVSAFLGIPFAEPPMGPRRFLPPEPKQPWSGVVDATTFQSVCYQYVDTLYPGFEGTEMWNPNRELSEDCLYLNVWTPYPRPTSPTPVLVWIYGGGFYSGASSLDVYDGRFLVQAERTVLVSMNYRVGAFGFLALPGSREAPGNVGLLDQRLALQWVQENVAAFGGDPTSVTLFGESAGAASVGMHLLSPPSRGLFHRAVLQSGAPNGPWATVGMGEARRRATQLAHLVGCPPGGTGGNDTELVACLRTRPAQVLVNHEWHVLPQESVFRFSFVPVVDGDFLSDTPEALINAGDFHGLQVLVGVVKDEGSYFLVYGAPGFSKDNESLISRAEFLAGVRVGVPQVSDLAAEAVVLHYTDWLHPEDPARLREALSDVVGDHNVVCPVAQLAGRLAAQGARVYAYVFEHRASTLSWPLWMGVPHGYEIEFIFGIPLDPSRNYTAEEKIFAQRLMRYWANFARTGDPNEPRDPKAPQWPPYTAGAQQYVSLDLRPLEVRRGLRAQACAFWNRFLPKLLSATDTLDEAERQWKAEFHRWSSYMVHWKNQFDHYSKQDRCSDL
T6 sequence (P23219 24-599): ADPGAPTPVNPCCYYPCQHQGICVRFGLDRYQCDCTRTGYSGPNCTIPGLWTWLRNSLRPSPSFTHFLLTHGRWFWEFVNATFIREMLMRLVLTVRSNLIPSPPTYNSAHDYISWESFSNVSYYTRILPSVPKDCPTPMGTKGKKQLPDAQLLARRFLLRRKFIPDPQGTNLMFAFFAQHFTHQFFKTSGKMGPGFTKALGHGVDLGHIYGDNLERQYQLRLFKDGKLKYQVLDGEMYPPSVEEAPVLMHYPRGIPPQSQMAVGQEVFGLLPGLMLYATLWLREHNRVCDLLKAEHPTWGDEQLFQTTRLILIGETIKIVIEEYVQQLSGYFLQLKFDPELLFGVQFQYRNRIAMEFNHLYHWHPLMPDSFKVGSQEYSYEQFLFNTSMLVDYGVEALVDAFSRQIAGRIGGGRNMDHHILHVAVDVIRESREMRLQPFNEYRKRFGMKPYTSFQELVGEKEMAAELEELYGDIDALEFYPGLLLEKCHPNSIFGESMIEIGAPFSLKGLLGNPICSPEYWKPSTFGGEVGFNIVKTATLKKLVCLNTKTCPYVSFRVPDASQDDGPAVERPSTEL
T10 sequence (P43681 29-627 limits assumed): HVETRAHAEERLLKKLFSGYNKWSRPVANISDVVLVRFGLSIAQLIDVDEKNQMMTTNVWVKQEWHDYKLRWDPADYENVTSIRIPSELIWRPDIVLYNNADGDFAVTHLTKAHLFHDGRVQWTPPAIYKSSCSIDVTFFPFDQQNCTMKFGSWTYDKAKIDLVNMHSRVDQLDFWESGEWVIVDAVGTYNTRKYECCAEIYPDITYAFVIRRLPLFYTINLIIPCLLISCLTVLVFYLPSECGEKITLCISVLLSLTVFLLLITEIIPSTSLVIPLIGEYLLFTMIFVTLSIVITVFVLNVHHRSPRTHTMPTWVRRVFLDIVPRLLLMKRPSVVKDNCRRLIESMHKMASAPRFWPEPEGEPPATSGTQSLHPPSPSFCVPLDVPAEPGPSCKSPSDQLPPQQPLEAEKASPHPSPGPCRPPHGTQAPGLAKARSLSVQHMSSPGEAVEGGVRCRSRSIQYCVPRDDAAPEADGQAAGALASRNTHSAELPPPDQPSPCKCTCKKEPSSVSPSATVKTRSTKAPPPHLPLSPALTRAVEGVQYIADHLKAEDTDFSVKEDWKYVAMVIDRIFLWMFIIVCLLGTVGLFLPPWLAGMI
T10 sequence (P17787 26-502): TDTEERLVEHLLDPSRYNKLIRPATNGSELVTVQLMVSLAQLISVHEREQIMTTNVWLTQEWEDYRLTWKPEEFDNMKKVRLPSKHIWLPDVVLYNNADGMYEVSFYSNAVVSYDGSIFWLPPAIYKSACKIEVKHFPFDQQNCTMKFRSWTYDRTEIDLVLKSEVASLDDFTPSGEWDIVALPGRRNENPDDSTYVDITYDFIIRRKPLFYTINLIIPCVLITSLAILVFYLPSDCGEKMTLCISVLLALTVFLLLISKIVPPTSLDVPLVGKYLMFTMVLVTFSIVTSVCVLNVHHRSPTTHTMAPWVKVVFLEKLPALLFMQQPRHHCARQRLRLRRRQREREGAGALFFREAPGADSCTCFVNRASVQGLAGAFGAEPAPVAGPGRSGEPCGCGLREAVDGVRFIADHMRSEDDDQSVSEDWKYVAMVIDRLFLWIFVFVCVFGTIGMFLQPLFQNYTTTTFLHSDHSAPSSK

Turning to `Cn1ncc(-c2cc3c(N[C@@H](c4ccc5c(n4)OCCO5)C(C)(C)C)ncnc3[nH]2)c1C#N` [ASAP-0011221], at NaV1.5 (NaV1.5, rest state), the perc_inhibition_rest_state turned out to be 17.0%. Further, the IC50 at NaV1.5 (setting [2]) and on NaV1.5 (setting [3]) was more than 30 µM in each case. Also, the perc_inhibition_use_dep_block on NaV1.5 (NaV1.5, use dependent block) turned out to be 21.0%. For the same compound, the “perc_inhibition (% inhibition of the binding of a ligand specific for each target)” value on H2 (h) was -10%; on beta2 (h), 4%; in the data set with AR(h), 5%; at mu (MOP) (h) it was 28%; at alpha2A (h), 11%; on M1 (h) it was 13%. For the same compound, the “perc_inhibition (% inhibition of the binding of a ligand specific for each target)” value at M3 (h) is listed as -8%; in data set [1] it was -5%; on ETA (h) it was 9%. On PDE3A (h), the “perc_inhibition: % inhibition of control enzyme activity, PDE3A (h)” value (shortened to “perc_inhibition: % inhibition … PDE3A (h)”) turned out to be 37%. Further, the “perc_inhibition: % inhibition of control enzyme activity, COX1(h)” value (shortened to “perc_inhibition: % inhibition … COX1(h)”) at COX1(h) is listed as -14%. Further, on acetylcholinesterase (h), the “perc_inhibition: % inhibition of control enzyme activity, acetylcholinesterase (h)” value is reported as 14%.

On NaV1.5 (NaV1.5, rest state), `C[C@H](C(=O)O)[C@@H](NC(=O)c1ncnc2[nH]ccc12)c1ccc(Br)cc1` [ASAP-0014722] had a perc_inhibition_rest_state of 18.0%. Moreover, the IC50 on NaV1.5 (setting [2]) and at NaV1.5 (setting [3]) was more than 30 µM each time. The perc_inhibition_use_dep_block at NaV1.5 (NaV1.5, use dependent block) is reported as 16.0%. The “perc_inhibition (% inhibition of the binding of a ligand specific for each target)” value at H2 (h) is given as -21%; at beta2 (h), -8%; in the data set with AR(h), 12%; on mu (MOP) (h), -10%; at alpha2A (h) it was 3%; at M1 (h) it was -1%. The “perc_inhibition (% inhibition of the binding of a ligand specific for each target)” value at M3 (h) is on record as -9%; in data set [1], 0%; at ETA (h) it was -2%. In addition, the “perc_inhibition: % inhibition … PDE3A (h)” value on PDE3A (h) was found to be 52%. Besides, on COX1(h), the “perc_inhibition: % inhibition … COX1(h)” value is 14%. Besides, the “perc_inhibition: % inhibition of control enzyme activity, acetylcholinesterase (h)” value on acetylcholinesterase (h) amounted to 12%.

For `COc1ccc([C@H](Cc2nnn[nH]2)NC(=O)c2ncnc3[nH]ccc23)cc1` [ASAP-0015381], the perc_inhibition_rest_state at NaV1.5 (NaV1.5, rest state) amounted to 9.0%. Moreover, the IC50 at NaV1.5 (setting [2]) and at NaV1.5 (setting [3]) was more than 30 µM in each case. The perc_inhibition_use_dep_block at NaV1.5 (NaV1.5, use dependent block) stood at 8.0%. The “perc_inhibition (% inhibition of the binding of a ligand specific for each target)” value is recorded as -24% on H2 (h); -6% at beta2 (h); -2% in the data set with AR(h); -3% on mu (MOP) (h); -1% at alpha2A (h); -4% at M1 (h). In addition, the “perc_inhibition (% inhibition of the binding of a ligand specific for each target)” value at M3 (h) was -15%; in data set [1], 4%; at ETA (h), 2%. The “perc_inhibition: % inhibition … PDE3A (h)” value on PDE3A (h) came to 62%. In addition, the “perc_inhibition: % inhibition … COX1(h)” value on COX1(h) was 17%. In addition, on acetylcholinesterase (h), the “perc_inhibition: % inhibition of control enzyme activity, acetylcholinesterase (h)” value is listed as 11%.
